Values of other authors in PMC5103216, “Novel Agonist Bioisosteres and Common Structure-Activity Relationships for The Orphan G Protein-Coupled Receptor GPR139” (Scientific Reports, 2016).

Target: T1, GPR139 (Homo sapiens, UniProt Q6DWJ6)
T1 sequence (Q6DWJ6 1-353): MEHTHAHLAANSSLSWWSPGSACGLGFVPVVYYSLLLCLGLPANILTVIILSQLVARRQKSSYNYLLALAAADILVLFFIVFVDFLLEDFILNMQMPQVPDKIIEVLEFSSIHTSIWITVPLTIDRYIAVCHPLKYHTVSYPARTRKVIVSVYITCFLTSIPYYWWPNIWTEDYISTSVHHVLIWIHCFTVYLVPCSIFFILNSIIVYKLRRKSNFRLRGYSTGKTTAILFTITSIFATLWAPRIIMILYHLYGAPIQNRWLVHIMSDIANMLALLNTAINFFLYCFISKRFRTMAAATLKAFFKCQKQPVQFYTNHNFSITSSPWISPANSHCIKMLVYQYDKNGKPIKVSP
Set-up: method as in ref 11 (Shi et al.)
Settings: ref 11 (Shi et al.), cited from earlier work; for EC50: GPR139 agonist potency

CCc1cc(CC)cc(C(=O)NNC(=O)Nc2cccc3ccccc23)c1 [1e]
Emax: 6%

COc1cc(CNNC(=O)Nc2cccc3ccccc23)cc(OC)c1 [1p]
EC50: > 10 µM

COc1cc(OC)cc(C(=O)NNC(=O)Nc2cccc3ccc(OC)cc23)c1 [1o]
Emax: 50%

COc1cc(OC)cc(C(=O)NNC(=O)Nc2c(C)ccc3ccccc23)c1 [1l]
EC50: 0.086 µM
Emax: 86%

O=C(NNC(=O)c1ccccc1)Nc1cccc2ccccc12 [1b]
EC50: 2.4 µM
Emax: 85%

COc1cc(OC)cc(C(=O)NNC(=O)Nc2ccc(Br)c3ccccc23)c1 [1j]
Emax: 73%

COc1cc(OC)cc(C(=O)NNC(=O)Nc2ccc(Cl)c3ccccc23)c1 [1m]
Emax: 64%

CCOc1ccccc1C(=O)NNC(=O)Nc1cccc2ccccc12 [1d]
Emax: 53%

COc1cc(OC)cc(C(=O)NCC(=O)Nc2cccc3ccccc23)c1 [1r]
EC50: 0.18 µM
Emax: 98%

COc1cc(OC)cc(C(=O)NNC(=O)Nc2cccc3c(Br)cccc23)c1 [1n]
Emax: 54%

COc1cc(OC)cc(C(=O)NNC(=O)Nc2ccc(C#N)c3ccccc23)c1 [1k]
Emax: 20%

COc1cc(OC)cc(C(=O)N(C)NC(=O)Cc2cccc3ccccc23)c1 [1t]
EC50: 2.5 µM
Emax: 74%

O=C(NNC(=O)c1ccc(F)cc1)Nc1cccc2ccccc12 [1g]
EC50: 0.44 µM
Emax: 96%

COc1cc(OC)cc(C(=O)CNC(=O)Nc2cccc3ccccc23)c1 [1q]
EC50: 3.3 µM
Emax: 100%

O=C(NNC(=O)c1ccc(Oc2ccccc2)cc1)Nc1cccc2ccccc12 [1i]
EC50: 2.1 µM
Emax: 61%

COc1cc(C(=O)NNC(=O)Nc2cccc3ccccc23)cc(OC)c1OC [1h]
EC50: 0.063 µM
Emax: 76%

COc1cc(OC)cc(C(=O)NN(C)C(=O)Cc2cccc3ccccc23)c1 [1u]
EC50: 5.1 µM
Emax: 84%
